Laboratory results taken from article PMC10222839, “Development of Novel Small-Molecule Activators of Pyruvate Kinase Muscle Isozyme 2, PKM2, to Reduce Photoreceptor Apoptosis” (Pharmaceuticals, 2023).

How the values were obtained:
[1] = target: T1, pyruvate kinase (PK) activity in 661W cells (Mus musculus, UniProt P52480); assay: PK activity in 661W cell lysates after 2 h incubation with activator; format: cell-based
T1 construct: endogenous in cells; host or cells: 661W photoreceptor-like cells
T1 sequence (P52480 whole entry): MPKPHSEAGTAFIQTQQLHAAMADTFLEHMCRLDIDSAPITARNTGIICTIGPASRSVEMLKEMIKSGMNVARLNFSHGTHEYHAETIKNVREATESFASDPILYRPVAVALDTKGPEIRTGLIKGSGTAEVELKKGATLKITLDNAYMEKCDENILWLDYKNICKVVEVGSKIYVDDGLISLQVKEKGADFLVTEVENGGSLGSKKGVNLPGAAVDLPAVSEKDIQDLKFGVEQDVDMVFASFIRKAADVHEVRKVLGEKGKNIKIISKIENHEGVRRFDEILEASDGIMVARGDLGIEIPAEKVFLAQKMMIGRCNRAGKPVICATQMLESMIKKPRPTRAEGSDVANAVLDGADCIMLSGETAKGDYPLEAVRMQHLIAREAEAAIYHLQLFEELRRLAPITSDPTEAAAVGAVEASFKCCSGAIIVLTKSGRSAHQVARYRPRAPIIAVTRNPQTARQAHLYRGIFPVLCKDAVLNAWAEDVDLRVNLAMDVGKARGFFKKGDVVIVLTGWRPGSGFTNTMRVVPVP
Procedure: The potency and efficacy of each compound, 1 through 5, was assessed with recombinant human PKM2 using an enzyme-coupled assay that uses lactate dehydrogenase and measures the reduction in NADH via absorbance at 340 nm. […] To assess the ability of this pyridazinoindolone series of compounds to cross cellular membranes and increase PK activity, we utilized 661W cells, which are immortalized photoreceptor-like cells that express cone markers.
Cell culture. Next, 661W cells were incubated with either DMSO or different concentrations of small-molecule PKM2 activator for 2 h, lysed and homogenized in RIPA Lysis and Extraction Buffer (Thermo Fisher, Waltham, MA, USA, Cat No. 89900) with protease inhibitors (Complete-Mini, Roche Diagnostics, Indianapolis, IN, USA), and centrifuged at 10,000 rpm for 10 min to remove cellular debris. The supernatant (4–8 μL) was then used to assess the pyruvate kinase activity as described above. The total protein content was determined using the Pierce BCA protein assay kit (Thermo Fisher, Waltham, MA, USA, Cat No. 23225) with the Pierce™ Bovine Serum Albumin Standard Pre-Diluted Set (Thermo Fisher, Waltham, MA, USA, Cat No. 23208) and used to normalize activity as described previously.

[2] = target: T2, pyruvate kinase (PK) activity in rat retina (Rattus norvegicus, UniProt P11980); assay: PK activity in rat retina after intravitreal injection; format: in vivo; details: increasing concentrations, intravitreal injection in rats, retina 4 h
T2 construct: the retina from each rat eye was dissected from the RPE-choroid, homogenized, and lysed; from tissue; host or cells: retina of adult Brown-Norway rats
T2 sequence (P11980 1-531 isoform P11980-2): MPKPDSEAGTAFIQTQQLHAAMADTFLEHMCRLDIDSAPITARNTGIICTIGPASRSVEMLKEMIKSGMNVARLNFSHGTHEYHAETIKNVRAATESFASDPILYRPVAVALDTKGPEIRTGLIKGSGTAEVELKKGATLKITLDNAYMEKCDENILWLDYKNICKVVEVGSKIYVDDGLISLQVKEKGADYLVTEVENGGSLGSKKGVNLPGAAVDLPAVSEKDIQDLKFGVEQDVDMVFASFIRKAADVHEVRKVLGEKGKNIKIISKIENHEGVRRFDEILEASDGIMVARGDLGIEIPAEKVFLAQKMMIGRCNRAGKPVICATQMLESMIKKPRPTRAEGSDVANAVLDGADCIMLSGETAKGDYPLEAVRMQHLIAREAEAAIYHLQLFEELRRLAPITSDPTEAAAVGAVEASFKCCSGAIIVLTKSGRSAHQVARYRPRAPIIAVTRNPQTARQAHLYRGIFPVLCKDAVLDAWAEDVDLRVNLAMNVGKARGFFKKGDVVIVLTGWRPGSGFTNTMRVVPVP
Procedure: The intravitreal injection of medications has revolutionized how numerous retinal diseases are treated and are ever-increasing in ophthalmic clinical practice. Therefore, to assess the ability of these small molecules to activate PK in vivo in the rat retina, we utilized this well-accepted drug delivery method. Two microliters of each respective compound at 850 μM or DMSO were intravitreally injected into rat eyes. The vitreous volume of the rat eye was assumed to be 15 μL, giving a final intravitreal concentration of approximately 100 μM for each compound after injection. Retinas were harvested four hours after injection, lysed, and assayed for PK activity as previously described. The eyes treated with DMSO served as the control upon which PK activation was based.
Two microliters of each respective compound at 8.5 μM (final vitreous concentration of 1 μM) or DMSO was intravitreally injected into rat eyes, and the PK activity was assessed four hours later.
Animals. Intravitreal injections of various small-molecule PKM2 activators or vehicle (DMSO) were performed in Brown-Norway adult rats. The rats were anesthetized with ketamine (90 mg/mL) and xylazine (10 mg/mL) and their pupils dilated with topical phenylephrine (2.5%) and tropicamide (1%) as described previously. A sclerotomy was created with a 25-gauge microvitreoretinal blade (Walcott Rx Products, Ocean View, NJ, USA) just posterior to the limbus. A blunt 35-gauge cannula was inserted through this sclerotomy into the vitreous cavity to deliver 2 μL of different concentrations of small-molecule activator or DMSO. This injection volume produces minimal reflux with adequate reproducibility. Fifteen microliters of vitreous volume was assumed in rats to calculate the intravitreal concentrations of the compound after injection. As we have previously described, left eyes were treated with small-molecular activator, while right eyes were treated with DMSO, which served as the control upon which pyruvate kinase activation was based. Four hours later, the retina from each rat eye was dissected from the RPE-choroid, homogenized, and lysed in RIPA Lysis and Extraction Buffer with protease inhibitors. The pyruvate kinase (PK) activity assay, as described above, was performed using 4 to 8 microliters of rat retinal lysate, similar to what we and others have previously described. Analogous to the cell culture assays, the total protein of the lysate was used to normalize pyruvate kinase activity.

[3] = system: cleaved caspase-8-positive cells in the retina; assay: Experimental retinal detachment, flow cytometry of cleaved caspase 8; format: in vivo; details: rat retinal detachment, highest dose tested (1 mM final vitreous), intravitreal, 3 days, versus DMSO
Description: Caspase activation, including caspase 8, increases 3 days status post experimental retinal detachment and has been validated to be a marker of photoreceptor apoptosis and the extent of retinal-detachment-induced photoreceptor cell death. Additionally, this caspase activation coincides with the peak of the terminal deoxynucleotidyl transferase dUTP nick end labeling (TUNEL) staining of photoreceptors, specifically after experimental retinal detachment in rodents. So, the detection and quantification of cleaved caspase 8 can be used as a marker of photoreceptor death after experimental retinal detachment and to assess the efficacy of neuroprotective agents. As such, different concentrations of compound 2 or its vehicle, DMSO, were injected at the time of retinal detachment creation in rats, and the retinas were harvested 3 days later to assess caspase 8 activation.
Detachments were created in rats as previously outlined. In brief, rats were anesthetized with ketamine (100 mg/mL) and xylazine (20 mg/mL), and their pupils were dilated as above. […]
After washing the cells in ice-cold PBS, the cells were fixed with 4% paraformaldehyde for 20 min at room temperature followed by two PBS washes via centrifugation at 300× g for 10 min at 4 °C. […] Data were analyzed with FCS Express software (De Novo Software, Ontario, CA, USA).

AC50 ([1]; n = 3): 120 ± 45 nM
Emax ([1]; n = 3, read-out: 661W Cells Max Activation): 355 ± 26%
AC50 ([2]; read-out: in vivo AC50): 299 ± 42 nM
Emax ([2]; rat, normalized to DMSO, read-out: in vivo PK activity (maximum activation)): 183 ± 4%
SMILES: Cn1c2cc([S+](C)[O-])ccc2c2cnn(Cc3cccc(N)c3)c(=O)c21 (centres unmarked) [Compound 2]
percentage of cleaved caspase-8-positive cells in the retina [3]: statistically significantly reduced
